# Measured values from ChEMBL document CHEMBL1146786, “Lingshuiol, a novel polyhydroxyl compound with strongly cytotoxic activity from the marine dinoflagellate Amphidinium sp” (Bioorg Med Chem Lett, 2004).
# What was measured:
# A549 = assay: In vitro cytotoxic activity of compound against A-549 cell line; type: functional, cell-based; conditions: Homo sapiens
# HL-60 = assay: In vitro cytotoxic activity of compound against HL-60 cell line; type: functional, cell-based; conditions: Homo sapiens
compound,measurement,setting,value
C=CCCCCCCCCCC/C=C/C(O)C(O)C1OC(C(O)C(O)C(=C)CCC(O)C2CC(O)C(O)C(C(O)C(O)/C=C(\C)CC(O)CC(O)C(O)C(O)C(O)C(O)C(C)CC(O)C(O)CC(C)/C=C/CCC(O)CC(=O)/C=C/CCCCC(O)CO)O2)CC(O)C1O (configuration not stated) [LINGSHUIOL],IC50,A549,210 nM
same,IC50,HL-60,230 nM
